Measured values taken from the NIST ThermoML archive (doi:10.1016/j.fluid.2014.01.019).

Assay: xn = mol fraction of the nth substance listed
Settings: 101 kPa, Liquid; for mass density: Vibrating tube method; for speed of sound: Frequency=2 MHz, Linear variable-path acoustic interferometer

Cc1ccccc1[N+](=O)[O-] [2-nitrotoluene] + OCc1ccccc1
Settings | mass density, 298.15 K [kg/m3] | mass density, 303.15 K [kg/m3] | mass density, 308.15 K [kg/m3] | mass density, 313.15 K [kg/m3] | speed of sound, 303.15 K [m/s] | speed of sound, 313.15 K [m/s]
x2 = 0.0534 | 1153.93 | 1148.05 | 1144.09 | 1139.21 | 1444 | 1406
x2 = 0.1227 | 1146.45 | 1140.66 | 1136.63 | 1131.74 | 1449 | 1411
x2 = 0.1912 | 1138.96 | 1133.26 | 1129.16 | 1124.32 | 1454 | 1418
x2 = 0.2352 | 1134.11 | 1128.45 | 1124.35 | 1119.53 | 1458 | 1421
x2 = 0.2997 | 1126.89 | 1121.35 | 1117.19 | 1112.42 | 1462 | 1427
x2 = 0.3713 | 1118.76 | 1113.36 | 1109.17 | 1104.47 | 1467 | 1432
x2 = 0.4567 | 1108.91 | 1103.69 | 1099.48 | 1094.85 | 1474 | 1440
x2 = 0.5416 | 1098.93 | 1093.89 | 1089.68 | 1085.15 | 1480 | 1447
x2 = 0.6038 | 1091.49 | 1086.61 | 1082.42 | 1077.95 | 1485 | 1452
x2 = 0.6536 | 1085.47 | 1080.69 | 1076.51 | 1072.12 | 1489 | 1457
x2 = 0.7025 | 1079.47 | 1074.82 | 1070.68 | 1066.34 | 1493 | 1461
x2 = 0.743 | 1074.47 | 1069.91 | 1065.79 | 1061.49 | 1495 | 1464
x2 = 0.8128 | 1065.71 | 1061.34 | 1057.26 | 1053.06 | 1501 | 1471
x2 = 0.8551 | 1060.33 | 1056.07 | 1052.04 | 1047.91 | 1505 | 1474
x2 = 0.9351 | 1050 | 1045.96 | 1042.02 | 1038.01 | 1510 | 1481

Cc1ccc(Cl)cc1 [4-chlorotoluene] + OCc1ccccc1
Settings | mass density, 298.15 K [kg/m3] | mass density, 303.15 K [kg/m3] | mass density, 308.15 K [kg/m3] | mass density, 313.15 K [kg/m3] | speed of sound, 303.15 K [m/s] | speed of sound, 313.15 K [m/s]
x2 = 0.0509 | 1063.78 | 1058.47 | 1053.11 | 1048.16 | 1292 | 1248
x2 = 0.1252 | 1062.11 | 1056.85 | 1051.49 | 1046.61 | 1327 | 1265
x2 = 0.1878 | 1060.69 | 1055.5 | 1050.13 | 1045.28 | 1350 | 1281
x2 = 0.2309 | 1059.7 | 1054.46 | 1049.19 | 1044.4 | 1370 | 1288
x2 = 0.3028 | 1058.05 | 1052.76 | 1047.63 | 1042.92 | 1394 | 1307
x2 = 0.3649 | 1056.62 | 1051.58 | 1046.32 | 1041.65 | 1415 | 1325
x2 = 0.4393 | 1054.9 | 1049.98 | 1044.75 | 1040.17 | 1439 | 1343
x2 = 0.5424 | 1052.48 | 1047.59 | 1042.61 | 1038.12 | 1468 | 1369
x2 = 0.6094 | 1050.91 | 1046.21 | 1041.23 | 1036.83 | 1480 | 1387
x2 = 0.6598 | 1049.71 | 1045.06 | 1040.21 | 1035.88 | 1493 | 1399
x2 = 0.7028 | 1048.68 | 1044.09 | 1039.35 | 1035.06 | 1502 | 1410
x2 = 0.7557 | 1047.41 | 1042.91 | 1038.31 | 1034.1 | 1506 | 1423
x2 = 0.8153 | 1045.97 | 1041.58 | 1037.16 | 1033.02 | 1511 | 1437
x2 = 0.8539 | 1045.04 | 1040.74 | 1036.42 | 1032.32 | 1513 | 1448
x2 = 0.9235 | 1043.33 | 1039.23 | 1035.1 | 1031.15 | 1514 | 1465

Cc1cccc(Cl)c1 [3-chlorotoluene] + OCc1ccccc1
Settings | mass density, 298.15 K [kg/m3] | mass density, 303.15 K [kg/m3] | mass density, 308.15 K [kg/m3] | mass density, 313.15 K [kg/m3] | speed of sound, 303.15 K [m/s] | speed of sound, 313.15 K [m/s]
x2 = 0.0583 | 1065.82 | 1061.18 | 1056.8 | 1052.23 | 1298 | 1294
x2 = 0.1107 | 1064.36 | 1059.84 | 1055.47 | 1050.83 | 1316 | 1304
x2 = 0.1903 | 1062.34 | 1057.86 | 1053.42 | 1048.82 | 1340 | 1321
x2 = 0.2401 | 1061.05 | 1056.6 | 1052.17 | 1047.95 | 1356 | 1331
x2 = 0.3028 | 1059.47 | 1055.2 | 1050.6 | 1046.35 | 1374 | 1343
x2 = 0.3703 | 1057.61 | 1053.44 | 1048.89 | 1044.54 | 1394 | 1356
x2 = 0.4442 | 1055.83 | 1051.49 | 1047.05 | 1042.9 | 1414 | 1371
x2 = 0.5405 | 1053.04 | 1049.21 | 1044.67 | 1040.69 | 1440 | 1389
x2 = 0.6285 | 1050.88 | 1046.99 | 1042.53 | 1038.52 | 1462 | 1409
x2 = 0.7019 | 1049.03 | 1045.09 | 1040.75 | 1036.95 | 1477 | 1422
x2 = 0.7558 | 1047.64 | 1043.62 | 1039.43 | 1035.23 | 1487 | 1435
x2 = 0.8109 | 1046.31 | 1042.35 | 1038.15 | 1034.05 | 1494 | 1446
x2 = 0.8546 | 1045.2 | 1041.4 | 1037.11 | 1033.02 | 1501 | 1455
x2 = 0.8946 | 1044.04 | 1040.31 | 1036.18 | 1032.43 | 1504 | 1462
x2 = 0.9498 | 1042.49 | 1038.83 | 1034.89 | 1030.91 | 1510 | 1474

Cc1ccccc1Cl [2-chlorotoluene] + OCc1ccccc1
Settings | mass density, 298.15 K [kg/m3] | mass density, 303.15 K [kg/m3] | mass density, 308.15 K [kg/m3] | mass density, 313.15 K [kg/m3] | speed of sound, 303.15 K [m/s] | speed of sound, 313.15 K [m/s]
x2 = 0.0507 | 1074.83 | 1071.16 | 1066.48 | 1061.94 | 1301 | 1296
x2 = 0.1134 | 1072.8 | 1068.97 | 1064.3 | 1059.77 | 1320 | 1308
x2 = 0.1507 | 1071.57 | 1067.66 | 1062.99 | 1058.47 | 1332 | 1316
x2 = 0.1894 | 1070.31 | 1066.29 | 1061.66 | 1057.14 | 1344 | 1325
x2 = 0.2477 | 1068.37 | 1064.25 | 1059.65 | 1055.13 | 1360 | 1336
x2 = 0.3059 | 1066.42 | 1062.2 | 1057.64 | 1053.16 | 1377 | 1348
x2 = 0.3686 | 1064.3 | 1060 | 1055.47 | 1051.04 | 1394 | 1360
x2 = 0.4535 | 1061.39 | 1057.02 | 1052.56 | 1048.18 | 1415 | 1377
x2 = 0.5385 | 1058.41 | 1054.04 | 1049.63 | 1045.3 | 1436 | 1393
x2 = 0.6309 | 1055.16 | 1050.78 | 1046.46 | 1042.2 | 1456 | 1411
x2 = 0.7003 | 1052.67 | 1048.32 | 1044.08 | 1039.89 | 1469 | 1426
x2 = 0.7723 | 1050.04 | 1045.77 | 1041.59 | 1037.48 | 1482 | 1442
x2 = 0.8537 | 1047.01 | 1042.88 | 1038.81 | 1034.72 | 1496 | 1458
x2 = 0.8902 | 1045.64 | 1041.6 | 1037.56 | 1033.55 | 1499 | 1466
x2 = 0.9547 | 1043.18 | 1039.28 | 1035.35 | 1031.4 | 1508 | 1478

Cc1cccc([N+](=O)[O-])c1 [3-nitrotoluene] + OCc1ccccc1
Settings | mass density, 298.15 K [kg/m3] | mass density, 303.15 K [kg/m3] | mass density, 308.15 K [kg/m3] | mass density, 313.15 K [kg/m3] | speed of sound, 303.15 K [m/s] | speed of sound, 313.15 K [m/s]
x2 = 0.0537 | 1146.83 | 1141.95 | 1137.26 | 1132.52 | 1446 | 1414
x2 = 0.1225 | 1139.74 | 1134.93 | 1130.25 | 1125.57 | 1451 | 1419
x2 = 0.1914 | 1132.59 | 1127.81 | 1123.19 | 1118.56 | 1456 | 1424
x2 = 0.2356 | 1127.96 | 1123.23 | 1118.65 | 1114.02 | 1459 | 1427
x2 = 0.2992 | 1121.25 | 1116.57 | 1112.02 | 1107.46 | 1464 | 1432
x2 = 0.3717 | 1113.52 | 1108.89 | 1104.4 | 1099.9 | 1469 | 1438
x2 = 0.4567 | 1104.33 | 1099.76 | 1095.34 | 1090.91 | 1476 | 1444
x2 = 0.5413 | 1095.03 | 1090.53 | 1086.18 | 1081.85 | 1481 | 1452
x2 = 0.6035 | 1088.09 | 1083.66 | 1079.37 | 1075.08 | 1486 | 1456
x2 = 0.6539 | 1082.39 | 1078.02 | 1073.77 | 1069.5 | 1490 | 1460
x2 = 0.7023 | 1076.86 | 1072.56 | 1068.36 | 1064.17 | 1494 | 1463
x2 = 0.7437 | 1072.1 | 1067.84 | 1063.65 | 1059.52 | 1496 | 1467
x2 = 0.8121 | 1064.1 | 1059.94 | 1055.82 | 1051.76 | 1502 | 1472
x2 = 0.8556 | 1058.96 | 1054.85 | 1050.78 | 1046.79 | 1505 | 1475
x2 = 0.9354 | 1049.37 | 1045.39 | 1041.41 | 1037.5 | 1511 | 1481
